The record followed here is patent US8846645B2, “Cyclohexane compounds and their use as antibiotics” (Rheinische Friedrich-Wilhelms Universität Bonn, priority 2010, dated 2014).

SMILES strings stand for the structures.

The subject of assay [1] is glmS riboswitch of Staphylococcus aureus MU50. As to the kind of experiment: metabolite-induced self-cleavage assay of the glmS riboswitch. Format: biochemical. On the procedure:
The determination was performed using an in vitro preparation of the glmS riboswitch of Staphylococcus aureus MU50.
The glmS riboswitch DNA was amplified from genomic DNA of the S. aureus Mu50 strain (RKI Berlin) by standard Pfu polymerase chain reaction (PCR) using a 5′ primer containing the T7 promoter (GATAATACGACTCACTATAGGGCAGTTAAAGCGCCTGTGCAAATA, SEQ ID NO: 1) and a 3′ primer (ATCTTATTAACTTTGTCCATTAAGTCACCC, SEQ ID NO: 2) (20 cycles, annealing temperature of 60° C., homemade Pfu enzyme). The resultant of a 100 μl PCR reaction was phenol/chloroform extracted and precipitated using 3M NaOAc pH 5.4 and ethanol Pellets were resuspended in 10 μl diethylpyrocarbonate treated water (DEPC H2O) and used as template for T7 RNA polymerase-based transcription. […]
For this assay the following components were mixed to yield the stated final concentrations: cleavage buffer (50 mM Hepes pH 7.5, 200 mM KCl), MgCl2 (10 mM), glucosamine-6-phosphate (200 μM), glucosamine (GlcN) (200 μM), the compound according to formula (I) (200 μM) or the compound according to formula (3) (200 μM and 20 mM), radioactively labelled RNA (20 cps) and DEPC H2O ad 10 μl. […] The screens were read using a FujiFilm PhosphorImager FLA 3000 and evaluated using AIDA software.

The subject of assay [2] is Staphylococcus aureus SG511. As to the kind of experiment: determination of the minimal inhibitory concentration in Staphylococcus aureus SG511. Format: cell-based. To be noted: 0.5× Mueller-Hinton media, 18-24 h, OD 600 nm; FIG. 3. As to the method: The determination of the minimal inhibitory concentration (MIC) of the compounds according to formula (I) (carba-GlcN6P) and formula (3) (carba-GlcN) was performed in clear, round bottom 96-well plates. For this 100 μl of 0.5× Mueller-Hinton media (Oxoid, 300 gm/litre dehydrated infusion from beef, 17.5 gm/litre casein hydrolysate, 1.5 gm/litre starch, pH 7.3) were put into the 12 wells. To the first well 100 μl of 320 mM solution of carba-GlcN were added, mixed by pipetting and 100 μl of this mixture were transferred into the next well etc., generating a sequence final dilutions from 160 mM to 0.08 mM. Finally, SG511 cells that had been grown to an optical density (OD600) of 1 were diluted in 0.5× Mueller-Hinton media 1:10 000. From this dilution 100 μl were added to the already prepared plate leading to a final compound concentration of 80 mM-0.04 mM. After incubation for 10 min at RT and vivid shaking, the 96-well plate was transferred to a 37° C. incubator. After 18-24 h of incubation the plate was read at 600 nm using a standard plate reader.

Assay [3] relates to Staphylococcus aureus Mu50 cells. As to the kind of experiment: growth inhibition in vancomycin intermediate resistant Staphylococcus aureus Mu50 in sugar free medium. Format: cell-based. As to the method: For the preparation of 2× chemically defined medium (2×CDM), a minimal medium for Staphylococcus aureus without glucose, for the preparation of 500 ml the following components were mixed in individual groups before being combined:
After preparation of the individual groups, the groups I-IV were added to group V. The volume was adjusted to 480 ml with ddH2O. The pH was adjusted to 7 using HCl followed by adjusting the volume to the final 500 ml. Before storage at 4° C. the medium was sterile filtered.
The determination of the decrease in bacterial growth of Staphylococcus aureus Mu50 cells (RKI Berlin) depending on the concentration of the compound according to formula (3) (C GlcN) was performed in clear, sterile, round bottom 96-well plates with lid. Before treatment, the cells were grown in 2×CDM medium without glucose at 37° C. for 24 h under vigorous shaking.
For the determination of the growth inhibition 100 μl of 2×CDM were put into each of 12 wells. […] The 96 well plate was incubated at 37° C. in a Tecan Sunrise plate reader, which tracks the optical density (OD600) in 10 minute intervals and automatically shakes the plate for one minute every two minutes. Minimal inhibitory concentration was read after 18 h to 24 h of incubation. […]

For assay [4] the test system is unchanged. As to the kind of experiment: synergistic effects with vancomycin treatment of S. aureus Mu50. To be noted: 0.0025 mM alone. The assay is classed as cell-based.
Experimental: Before treatment, Staphylococcus aureus Mu50 cells (RKI Berlin) were grown in sterile, 15 ml flasks containing 5 ml of 2×CDM without glucose at 37° C. for 24 h under vigorous shaking.
For the determination of the growth inhibition 100 μl of 2×CDM containing 10 μM vancomycin were put into each of 12 wells. […] Finally, Mu50 cells that had been grown to an optical density (OD600) of 0.8 to 1 were diluted in 2×CDM to an optical density (OD600) of 0.2. From this dilution 100 μl were added to the already prepared plate leading to a final compound concentration of 80 mM, 40 mM, 20 mM, 10 mM, 5 mM, and 2.5 mM, a final concentration of 2.5 μM vancomycin and a final OD600 of 0.1 per well at the beginning of the measurement. The 96 well plate was incubated at 37° C. in a Tecan Sunrise plate reader, which tracks the optical density (OD600) in 10 minute intervals and automatically shakes the plate for one minute every two minutes. Minimal inhibitory concentration was read after 18 h to 24 h of incubation. Control cells were treated without compounds or with 2.5 μM vancomycin.

In the case of `N[C@@H]1[C@@H](O)[C@H](O)[C@@H](COP(=O)(O)O)C[C@@H]1O` [formula (1), (1S,2S,3R,4R,5R)-2-amino-5-((phosphonooxy)methyl)-cyclohexane-1,3,4-triol], the “activation of the glmS-riboswitch compared with the native metabolite” value in assay [1] (versus GlcN6P) is “almost the same potency”. The “bacterial growth of Staphylococcus aureus” value in assay [2] was “effectively inhibit the growth”.
As for `NC1C(O)CC(CO)C(O)C1O` (stereo not shown) [formula (3), Carba-glucosamine], the MIC in assay [3] (Staphylococcus aureus, MU50CELLS, 2×CDM without glucose, read after 18 h to 24 h, n=3, read-out: minimal inhibitory concentration (MIC)) amounted to 625 µM. Moreover, the “concentration at which measureable growth inhibition started” value in assay [3] (sugar free medium, referring to control cells grown without compounds, FIG. 4) was 0.156 mM.
Consider `CN[C@H](CC(C)C)C(=O)N[C@H]1C(=O)N[C@@H](CC(N)=O)C(=O)N[C@H]2C(=O)N[C@H]3C(=O)N[C@H](C(=O)N[C@H](C(=O)O)c4cc(O)cc(O)c4-c4cc3ccc4O)[C@H](O)c3ccc(c(Cl)c3)Oc3cc2cc(c3O[C@@H]2O[C@H](CO)[C@@H](O)[C@H](O)[C@H]2O[C@H]2C[C@](C)(N)[C@H](O)[C@H](C)O2)Oc2ccc(cc2Cl)[C@H]1O` [vancomycin], for which the “bacterial growth (OD600) compared to untreated cells” value in assay [4] (after 10 h, FIG. 5) is on record as “no change in the bacterial growth”; in assay [4] (over 18 h of incubation, FIG. 6), “no change in the bacterial growth”.
Regarding `N[C@H]1C(O)O[C@H](COP(=O)(O)O)[C@@H](O)[C@@H]1O` (stereo partly shown) [GlcN6P, glucosamine-6-phosphate, reference compound], the EC50 in assay [1] (concentration dependent analysis, 37° C., 30 min) is 3.61 ± 0.39 µM.
